Assay results published in ChEMBL document CHEMBL3804773, “Straightforward synthesis of a novel ring-fused pyrazole-lactam and in vitro cytotoxic activity on cancer cell lines” (Eur J Med Chem, 2016).

What was measured:
HeLa [1] = experiment: Cytotoxicity against human HeLa cells assessed as reduction in cell viability after 72 hrs by Z2 coulter counter method; type: functional, cell-based
MDA-MB-231 [2] = experiment: Cytotoxicity against human MDA-MB-231 cells assessed as reduction in cell viability after 72 hrs by Z2 coulter counter method; type: functional, cell-based; settings: MDA-MB-231, 72 h
MDA-MB-231 [3] = experiment: Cytotoxicity against human MDA-MB-231 cells assessed as reduction in cell viability after 24 hrs by Z2 coulter counter method; type: functional, cell-based; settings: MDA-MB-231, 24 h
MCF7 [4] = experiment: Cytotoxicity against human MCF7 cells assessed as reduction in cell viability after 48 hrs by Z2 coulter counter method; type: functional, cell-based; settings: MCF7, 48 h
[5] = Cytotoxicity against human HN13 cells assessed as reduction in cell viability after 48 hrs by Z2 coulter counter method; type: functional, cell-based; settings: WSU-HN13, 48 h
[6] = (§1) Cytotoxicity against human U87MG cells assessed as reduction in cell viability after 72 hrs by Z2 coulter counter method; type: functional, cell-based, U-87MG ATCC; settings: U-87 MG
[7] = Cytotoxicity against human HN13 cells assessed as reduction in cell viability after 72 hrs by Z2 coulter counter method; type: functional, cell-based; settings: WSU-HN13, 72 h
MCF7 [8] = experiment: Cytotoxicity against human MCF7 cells assessed as reduction in cell viability after 72 hrs by Z2 coulter counter method; type: functional, cell-based; settings: MCF7, 72 h
HeLa [9] = experiment: Cytotoxicity against human HeLa cells assessed as reduction in cell viability after 24 hrs by Z2 coulter counter method; type: functional, cell-based
MCF7 [10] = experiment: Cytotoxicity against human MCF7 cells assessed as reduction in cell viability after 24 hrs by Z2 coulter counter method; type: functional, cell-based; settings: MCF7, 24 h
[11] = (§2) Cytotoxicity against human U87MG cells assessed as reduction in cell viability after 48 hrs by Z2 coulter counter method; type: functional, cell-based, U-87MG ATCC; settings: U-87 MG
[12] = Cytotoxicity against human HN13 cells assessed as reduction in cell viability after 24 hrs by Z2 coulter counter method; type: functional, cell-based; settings: WSU-HN13, 24 h
HeLa [13] = experiment: Cytotoxicity against human HeLa cells assessed as reduction in cell viability after 48 hrs by Z2 coulter counter method; type: functional, cell-based
MDA-MB-231 [14] = experiment: Cytotoxicity against human MDA-MB-231 cells assessed as reduction in cell viability after 48 hrs by Z2 coulter counter method; type: functional, cell-based; settings: MDA-MB-231, 48 h
[15] = (§3) Cytotoxicity against human U87MG cells assessed as reduction in cell viability after 24 hrs by Z2 coulter counter method; type: functional, cell-based, U-87MG ATCC; settings: U-87 MG
U-87MG ATCC [16] = experiment: Cytotoxicity against human U87MG cells assessed as reduction in cell viability by Z2 coulter counter method; type: functional, cell-based; settings: TDE = time-dependent effect
U-87MG ATCC [17] = experiment: as §1; type: functional, cell-based; settings: TDE = time-dependent effect
U-87MG ATCC [18] = experiment: as §2; type: functional, cell-based; settings: TDE = time-dependent effect
U-87MG ATCC [19] = experiment: as §3; type: functional, cell-based; settings: TDE = time-dependent effect

Row | SMILES | IC50 (HeLa [1]) [µM] | IC50 (MDA-MB-231 [2]) [µM] | IC50 (MDA-MB-231 [3]) [µM] | IC50 (MCF7 [4]) [µM] | IC50 [5] [µM] | IC50 [6] [µM] | IC50 [7] [µM] | IC50 (MCF7 [8]) [µM] | IC50 (HeLa [9]) [µM] | IC50 (MCF7 [10]) [µM] | IC50 [11] [µM] | IC50 [12] [µM] | IC50 (HeLa [13]) [µM] | IC50 (MDA-MB-231 [14]) [µM] | IC50 [15] [µM] | Activity (U-87MG ATCC [16]) | Activity (U-87MG ATCC [17]) | Activity (U-87MG ATCC [18]) | Activity (U-87MG ATCC [19])
1 | O=C(Nc1ccc(Nc2ccc(OC3CCNCC3)cc2)cc1)c1cccc(-n2nc(C(=O)Nc3ccc(Nc4ccc(OC5CCNCC5)cc4)cc3)c3c2C(=O)NCC3)c1 | 16 | 28.9 | 55 | 32.9 | 27 | 33.5 | 26.1 | 10.6 | 17.6 | 78.3 | 44.4 | 30.6 | 17.6 | 42.6 | 60 |  |  |  | 
2 | O=c1[nH]cc(F)c(=O)[nH]1 [FLUOROURACIL] |  |  |  |  |  | 18.2 |  |  |  |  | 220 |  |  |  |  | tde | tde | tde | tde
3 | Cn1c(=O)n(-c2ccc(C(C)(C)C#N)cc2)c2c3cc(-c4cnc5ccccc5c4)ccc3ncc21 [DACTOLISIB] |  |  |  |  |  | 0.16 |  |  |  |  | 0.6 |  |  |  | 825 | tde | tde | tde | tde
